Source: patent publication US20070213291A1, “Therapeutically useful synthetic oligonucleotides” (priority 1999, published 2007)
“And” between values parts separate entries of the source, which are not always exact repeats. Identical values can stand only once.

Experiments:
[1] = tested on: CF-51 canine mammary gland cancer cells; assay: Inhibition of CF-51 cell proliferation (MTT); assay type: cell-based; conditions: 100 μg/ml, 48 h, 5×10^5 cells/ml
Method: (§1) Cells were seeded in 6 (1 ml/well), 24 (0.5 ml/well) or 96 (0.1 ml/well) well flat-bottom microplates and were maintained at 37° C. in a 5% CO2 atmosphere. Unless stated otherwise, 2.5×10^5 cells/ml were incubated with 0 μg/ml (control) and 100 μg/ml (treated) of 2 to 45 base sequences containing A, C, G and T for 48 h.
(§2) Cell proliferation was measured using dimethylthiazol-diphenyl-tetrazolium (MTT) reduction (Mosman et al. J. Immunol. Methods 65:55, 1983). MTT was measured at a wavelength of 570 nm using a multiplate spectrophotometer reader (ELX800, Bio-TEK Instruments Inc., Winooski, Vt.).
(§3) D-17 canine osteosarcoma cells and CF-51 canine mammary gland cancer cells are solid tumor models. D-17 canine osteosarcoma cells (5×10^5 cells/ml) (Table 20) and CF-51 canine mammary gland cancer cells (5×10^5 cells/ml) (Table 21) were incubated with 6, 9, 17, 27 and 33 base GT-sequences and with a 15 base ACG sequence.

[2] = tested on: EL-4 murine T lymphoma cells; assay: Inhibition of EL-4 cell proliferation (MTT); assay type: cell-based; conditions: 100 μg/ml, 48 h
Method in brief: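 EL-4 cells at 2.5×10^5 cells/ml were exposed for 48 h at 37° C, 5% CO2, to 100 μg/ml of 2- to 45-base sequences of A, C, G and T, against untreated controls. Proliferation was read by MTT reduction at 570 nm.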

[3] = tested on: D-17 canine osteosarcoma cells; assay: Inhibition of D-17 cell proliferation (MTT); assay type: cell-based; conditions: 100 μg/ml, 48 h, 5×10^5 cells/ml
Method: as §1, §2, §3

[4] = tested on: THP-1 human acute monocytic leukemia cells; assay: Inhibition of THP-1 cell proliferation (MTT); assay type: cell-based; conditions: 100 μg/ml, 48 h, 1.6×10^6 cells/ml
Method: as §1, §2
THP-1 acute monocytic leukemia cells are a p53 null human suspension tumor model. THP-1 cells (1.6×10^6 cells/ml) were incubated with 6 base GT sequences (Table 10).

rhesus monkey PBMCs = assay: Cytokine production by rhesus monkey PBMC (ELISA); assay type: cell-based; conditions: PBMC of 4 healthy rhesus monkeys, 100 μg/ml, 48 h
Method in brief: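 Peripheral blood mononuclear cells taken from 4 healthy rhesus monkeys were cultured at 1×10^6 cells with 100 μg/ml of each test sequence for 48 h at 37° C. under 5% CO2. Cytokine levels in 100 μl of supernatant were quantified in pg/ml by commercial ELISA and reported as fold increase over untreated control cells.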

chimpanzee PBMCs = assay: Cytokine production by chimpanzee PBMC (ELISA); assay type: cell-based; conditions: PBMC of 4 healthy chimpanzees, 100 μg/ml, 48 h
Method in brief: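 PBMCs from 4 healthy chimpanzees (1×10^6 cells) were incubated 48 h at 37 °C, 5% CO2 with 100 μg/ml of each 6-base sequence. Supernatant IL-10, IL-12 (p70 plus free p40) and TNF-alpha were measured by ELISA. Values are fold increase over untreated control cells.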

[5] = tested on: human peripheral blood mononuclear cells; assay: Cytokine production by human PBMC (ELISA); assay type: cell-based; conditions: PBMC of 7 healthy humans, 100 μg/ml, 48 h
Method in brief: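 PBMC from 7 healthy donors, Ficoll-isolated; 1×10^6 cells incubated with 100 μg/ml oligonucleotide sequence for 48 h at 37 °C, 5% CO2. IL-1beta, IL-6, IL-10, IL-12 (p70 plus free p40) and TNF-alpha measured by ELISA in supernatant, expressed as fold increase over control cells.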

[6] = tested on: THP-1 human acute monocytic leukemia cells; assay: Cytokine production by THP-1 cells (ELISA); assay type: cell-based; conditions: THP-1, 1×10^6 cells, 100 μg/ml, 48 h; for ↑ IL-12 (fold increase treated vs control cells): p70 complex and free p40
Method in brief: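 Read-out is fold increase in supernatant cytokine versus control cells, measured by ELISA (IL-12 ELISA counts p70 complex plus free p40). Unless noted, sequences were tested at 100 μg/ml on 1×10^6 cells, incubated 48 h, 37° C, 5% CO2.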

caspase 7 = assay: Caspase 7 activation by Western blot; assay type: cell-based, human; conditions: Jurkat, 72 h, 100 μg/ml (FIG. 3B)
Method: Jurkat T cell leukemia cells were incubated for 72 h with 6 base GT SEQ ID NO:25. The cells were washed 3× with PBS, lysed with 10 mM HEPES, pH 7.5 containing 5 mM MgCl2, 1 mM dithiothreitol, 1.5 nM aprotinin, 10 mM leupeptin and 2.5 μm Na orthovanadate, and the protein content of the lysate was determined (Bradford J. Anal. Biochem. 72:248, 1976).
Activated caspase 7 and PARP cleavage were detected by Western blot analysis. Lysate was mixed with Laemmli buffer (Laemmli U. Nature […], 1970), shaken, and heated at 100° C. for 4 min. […] The separated proteins were electroblotted onto a PVDF membrane. Equal protein loading was monitored by Ponceau red staining of the membrane.
The membrane was blocked overnight at 4° C. with a buffer containing 1% Tris-buffered saline (2 mM Tris-HCl, 13.7 mM NaCl, pH 7.6, and 0.1% polyethylenesorbitan monolaurate (TWEEN 20) (TBST) +5% non-fat dry milk. The membrane was washed and was incubated for 1 h at RT with a mouse monoclonal IgG anti-caspase 7 antibody (Pharmingen) (diluted 1:1000 in TBST+1% BSA) or with a mouse monoclonal IgG anti-PARP antibody (diluted 1:1000 in TBST+1% BSA) (Pharmingen). IgG bound to caspase 7 or to PARP was detected with sheep anti-mouse IgG conjugated to horseradish peroxidase (diluted 1:1000 in TBST+5% non-fat dry milk) (Pharmingen). […]

[7] = tested on: L-1210 murine leukemia cells; assay: Inhibition of L-1210 cell proliferation; assay type: cell-based
Method: as §1, §2

Sequence	% INHIBITION of CF-51 canine mammary gland cancer cell proliferation [1] [%]	% INHIBITION of EL-4 murine T lymphoma cell proliferation [2]	% INHIBITION of D-17 canine osteosarcoma cell proliferation [3] [%]	% INHIBITION of THP-1 human acute monocytic leukemia cell proliferation [4] [%]	IL-10 fold increase: mean +/− SD (rhesus monkey PBMCs)	IL-12 fold increase: mean +/− SD (rhesus monkey PBMCs)	TNF-alpha fold increase: mean +/− SD (rhesus monkey PBMCs)	IL-10 fold increase: mean +/− SD (chimpanzee PBMCs)	IL-12 fold increase: mean +/− SD (chimpanzee PBMCs)	TNF-alpha fold increase: mean +/− SD (chimpanzee PBMCs)	IL-1 beta fold increase: mean +/− SD [5]	IL-6 fold increase: mean +/− SD [5]	IL-10 fold increase: mean +/− SD [5]	IL-12 fold increase: mean +/− SD [5]	↑ IL-6 (fold increase treated vs control cells) [6] [x]	↑ IL-12 (fold increase treated vs control cells) [6]	↑ IL-12 (fold increase treated vs control cells) ([6]; listed as GoGoGoToGoGo) [x]	processing of inactive pro-caspase 7 to active caspase 7 (caspase 7)	% inhibition of L-1210 murine cancer cell proliferation [7] [%]
GGGTGG [SEQ ID NO:25]	14	4% and 1%	18	15	1.0 +/− 0.1 fold increase	10.6 +/− 4.7 fold increase	12.5 +/− 5.2 fold increase	2.5 +/− 1.5 fold increase	13.5 +/− 8.4 fold increase	11.7 +/− 6.7 fold increase	1.0 +/− 0.1 fold increase	20.9 +/− 18.0 fold increase	11.6 +/− 1.2 fold increase	13.2 +/− 11.5 fold increase	3.1	2.3x and 2.0x	2.0	induced processing of inactive pro-caspase 7 (30 kDa) to active caspase 7 (19-20 kDa)	8
GTGTGT [SEQ ID NO:10]	15	−2%	15	11	1.3 +/− 0.1 fold increase	10.7 +/− 4.1 fold increase	16.1 +/− 4.2 fold increase	4.0 +/− 2.1 fold increase	14.0 +/− 8.5 fold increase	12.9 +/− 6.4 fold increase	2.0 +/− 1.6 fold increase	9.8 +/− 14.2 fold increase	1.0 +/− 0.1 fold increase	4.0 +/− 6.3 fold increase	5.0	2.2x	–	–	–
TTGTTT [SEQ ID NO:26]	–	–	–	1	1.0 +/− 0.1 fold increase	–	2.1 +/− 1.0 fold increase	1.4 +/− 0.9 fold increase	12.3 +/− 8.5 fold increase	7.5 +/− 4.6 fold increase	1.5 +/− 0.9 fold increase	5.8 +/− 8.0 fold increase	1.0 +/− 0.1 fold increase	1.6 +/− 1.3 fold increase	5.3	3.5x and 3.8x	–	–	–
